The results in this text go back to US20180228801A1, “Method for Enhancing Learning Ability and Memory of Patients with Alzheimer's Disease using Mocetinostat” (National Taiwan Normal University, priority 2017, published 2018).

One test relates to astrocytes. Description: Immunohistochemical staining, astrocytes in hippocampus. As to conditions: Aβ25-35 mice. The test is classed as in vivo, mice (C57BL/6J). Here is the method:
(§1) Further, in some embodiments of the present invention, C57BL/6J strain male mice (12 week old) are used as a subject in need. After mice are allowed to adapt to the environment for 6 days, mice are anesthetized with Avertin (0.4 g/kg; purchased from Sigma). The mice are fixed on a stereotactic apparatus for operation, followed by injecting oligomeric Aβ25-35 (10 nM, 3 μL) into bilateral hippocampal CA1 (AP: […] relative to the bregma; ML: ±[…] relative to the midline; DV: […] relative to the skull) on day 7. MGCD0103 and equal volume of vehicle (saline) are intraperitoneal (i.p.) injected once a day from day 8, the day after said operation, for 29 days. On day 24, the Open Field Test is performed; on day 26, the EPM is performed; on day 28, the Y-maze is performed; on days 30 to 36, MWM is performed; and on day 37, mice are euthanized for pathological analysis.
(§2) The inventor collects the brain tissue by perfusion followed by fixing and dehydrating, then, 30 μm frozen sections are obtained by a freezing microtome (CMS3050S, Leica). […] After that, avidin-biotin complex (ABC) is detected 1 hour after staining. […] After all sections have been stained, they are then fixed on a slide, dried, dehydrated, mounted, and photographed for quantity (performed by Image Pro Plus, Meida Cyberetics, USA).

In another test the test system is pCDK. As to the kind of experiment: Western blot, pCDK. The test is classed as in vivo, mice (C57BL/6J). As to conditions: hippocampus. Here is the method: as §1
(In general: Immunoblotting shows a protein as a band on a membrane.)

For test [1], the system named is IDE (Aβ degrading enzyme). As to the kind of experiment: Western blot, IDE. The test is classed as in vivo, mice (C57BL/6J). As to conditions: Aβ25-35 mice, hippocampus. How it is done:
as §1

For test [2], the system named is primary hippocampus neurons. Description: Cell viability analysis (MTT assay). The test is classed as cell-based, mouse (C57BL/6J). The note with it: Mus musculus, Neuron; primary hippocampus neurons treated on day 9, viability after 48 hours; read-out: IC50 dose, cell viability. How it is done: The method of culturing mouse primary hippocampus neurons follow from a modified method from the prior art (Seibenhener and Wooten, 2012), including: obtaining a 16-18 day old embryo from a C57BL/6J strain pregnant female mouse after euthanasia, obtaining hippocampus tissue of the embryo and digesting the tissue with 0.05% trypsin at 37° C. for 15 minutes, and seeding 3×10^4 cells per well in a 48-well plate coated with Poly-L-lysine (100 μg/mL); wherein the components of the medium includes: Neurobasal Medium® (Gibco™; ThermoFisher Scientific, USA) adding 2% of B-27® Additive (Gibco™; ThermoFisher), 0.5 mM of glutamine (Gibco™; ThermoFisher), 25 μM of glutamate (Sigma-Aldrich, USA), 20 unit/mL of penicillin/streptomycin solution (Gibco™; ThermoFisher Scientific, USA), 1 mM of 4-(2-hydroxyethyl)-1-piperazineethanesulfonic acid) (HEPES) (Sigma-Aldrich), and 1% of heat inactivated Donor Horse Serum (Gibco™; ThermoFisher). […]
(3-(4,5-Dimethylthiazol-2-yl)-2,5-diphenyltetrazolium bromide, MTT) (Sigma, USA) has an original color of yellow, which is able to carry out a reducing reaction by a succinate dehydrogenase of mitochondria within living cells that breaks the tetrazolium ring thereof so as to form formazan, which has a violet color. […] Finally, the cell viability may be analyzed by detecting the changes of violet color (O.D. 570) by a spectrophotometer. […]
For orientation: Tetrazolium assays rely on reduction of a dye to a coloured formazan, in cell work by metabolically active cells.

The subject of test [3] is Tau protein at the Ser-202 site. Description: Immunohistochemical staining, pS202Tau. The test is classed as in vivo, mice (C57BL/6J). The note with it: Aβ25-35 mice. Here is the method: as §1, §2
Test [4] deals with serotonergic neurons in Raphe nucleus. Description: Immunohistochemical staining, serotonergic neurons (5HT). The note with it: saline-injected mice; Mean±SEM. The test is classed as in vivo, mice (C57BL/6J). Here is the method:
as §1
(§3) The inventor collects the brain tissue by perfusion followed by fixing and dehydrating, then, 30 μm frozen sections are obtained by a freezing microtome (CMS3050S, Leica). […] After that, avidin-biotin complex (ABC) is detected 1 hour after staining. […] After all sections have been stained, they are then fixed on a slide, dried, dehydrated, mounted, and photographed for quantity (performed by Image Pro Plus, Meida Cyberetics, USA). […]

The test system of a further test is activated microglia. As to the kind of experiment: Immunohistochemical staining, activated microglia in hippocampus. The test is classed as in vivo, mice (C57BL/6J). As to conditions: Aβ25-35 mice. How it is done:
as §1, §2

The test system of test [5] is BACE1 (Aβ forming enzyme). As to the kind of experiment: Western blot, BACE1. The test is classed as in vivo, mice (C57BL/6J). The note with it: Aβ25-35 mice, hippocampus. Here is the method: as §1
Test [6] concerns adrenergic neurons in locus coeruleus (LC). As to the kind of experiment: Immunohistochemical staining, adrenergic neurons (TH). The test is classed as in vivo, mice (C57BL/6J). The note with it: saline-injected mice; Mean±SEM. How it is done:
as §1, §3

The subject of the next test is pERK. Description: Western blot, pERK. The test is classed as in vivo, mice (C57BL/6J). As to conditions: hippocampus. Here is the method:
as §1

For test [7], the system named is Aβ accumulation in hippocampal CA1. As to the kind of experiment: Immunohistochemical staining, Aβ accumulation (6E10). As to conditions: Aβ25-35 mice. The test is classed as in vivo, mice (C57BL/6J). How it is done: as §1, §2
The subject of the next test is Tau protein at Thr-205. As to the kind of experiment: Western blot, Tau phosphorylation at Thr-205. The test is classed as in vivo, mice (C57BL/6J). As to conditions: Aβ25-35 mice, hippocampus. Here is the method:
as §1

As for `Nc1ccccc1NC(=O)c1ccc(CNc2nccc(-c3cccnc3)n2)cc1` [MGCD0103, N-(2-Aminophenyl)-4-[[(4-pyridin-3-ylpyrimidin-2-yl)amino]methyl] benzamide], the numbers of astrocytes result in the test with astrocytes is “significantly decrease”. Besides, the “expression of pCDK” value in the test on pCDK was “do not show difference”. Moreover, the “expression of IDE protein” value in test [1] is reported as “significantly increased”. Further, the IC50 (usually the point on the concentration scale where inhibition reaches its midpoint) in test [2] is ~7 µM. Further, the pS202Tau result in [3] (BLA region) and in test [3] (hippocampal CA1) was “significantly decreased” throughout. In addition, the “5HT, numbers of serotonergic neurons” value in [4] is listed as 21.43 ± 1.32. Also, the “numbers of activated microglia” value in the test with activated microglia is reported as “significantly decrease”. Besides, in test [5], the “expression of BACE1” value is “does not show a significant difference”. Besides, in test [6], the “TH, numbers of adrenergic neurons” value was found to be 44.58 ± 2.05. In the test with pERK, the “expression of pERK” value was “do not show difference”. Further, in test [7], the “Aβ accumulation within the hippocampal CA1” value is “relieved”. The “phosphorylation expression of Tau protein at Thr-205” value with Tau protein at Thr-205 is listed as “decreased”.
